Laboratory results: patent US10370622B2, “Soap bar having enhanced antibacterial activity” (Conopco, Inc., priority 2013, dated 2019)

How the values were obtained:
[1] = in water at 25° C.; cited from earlier work
[2] = Silver ion solubility derived from solubility product (Ksp) in water at 25° C.; settings: calculated as (Ksp·x)^(1/(x+1))

Row | Structure (SMILES) | Ksp [1] | Silver Ion Solubility [Ag+] [2]
1 | O=C([O-])CC(O)(CC(=O)[O-])C(=O)[O-].[Ag+].[Ag+].[Ag+] [Silver citrate] | 2.5e-18 mol/L | 
2 | O=C([O-])c1ccccc1.[Ag+] [Silver benzoate] | 2.5e-05 mol/L | 
3 | O=S(=O)([O-])[O-].[Ag+].[Ag+] [Silver sulfate] | 1.4e-05 mol/L | 
4 | [Cl][Ag] [Silver chloride] | 1.8e-10 mol/L | 13 µM
5 | [Br][Ag] [Silver bromide] | 5.3e-13 mol/L | 
